Here are results for 1 molecule from US9616047B2, “Inhibitors of beta-catenin in treatment of colorectal cancer” (Regents of the University of Minnesota, priority 2014, dated 2017).

The subject of test [1] is HCT116 colon cancer cells. As to the kind of experiment: Soft agar assay, anchorage-independent growth, HCT116. The test is classed as cell-based. The protocol: (§1) FIG. 2. […] HCT116 and HT-29 colon cancer cells. Colony formation of two cell lines were inhibited by treatment of β-catenin inhibitor candidates. Cells (8×10^3/ml) were incubated with or without HI-B5 or HI-B9 compounds in 1 mL of 0.33% BME agar containing 10% FBS or in 3.5 mL of 0.5% BME agar containing 10% FBS. The cultures were maintained at 37° C. in a 5% CO2 incubator for 7 days, after which the cell colonies were counted under a microscope.
(§2) Cells (8×10^3 per well) suspended in Basal Medium Eagle (BME) supplemented with 10% FBS were added to 0.3% agar with different doses of chemicals in a top layer over a basal layer of 0.6% agar. The cultures were maintained at 37° C. in a 5% CO2 incubator for 2 wk and then colonies were counted under a microscope using the Image-Pro Plus Software (v.4) program (Media Cybernetics).

Test [2] relates to β-catenin/Tcf-4 luciferase activity. The test is described as follows: β-catenin/Tcf-4 luciferase assay of HI-B9 derivatives (cell line not stated). The conditions noted are these: FIG. 6A. The test is classed as cell-based. As for the experimental part:
(§3) (B) HI-B16 inhibited anchorage-independent growth of colon cancer cells. HCT116, HT29, DLD1 and SW480 were incubated in agar plate with or without HI-B16 and HI-B9. In every case, HI-B16 was better than HI-B9 treatment.
Transient transfection was performed using jetPEI and assays to detect firefly luciferase and Renilla activities according to the manufacturer's manual (Promega). Briefly, cells were seeded onto 10-cm plates and co-transfected with 400 ng of the Renilla luciferase internal control gene and 4 μg of the TOP-flash luciferase reporter construct containing three tandem Tcf consensus binding sites upstream of luciferase cDNA, or the FOPflash luciferase reporter construct, a plasmid with mutated Tcf binding sites. After 16 h of transfection, cells were trypsinized and seeded onto 48-well plates, and cells were treated with respective chemicals for 24 h. Luciferase and Renilla activities were measured using their substrates.

The test system of test [3] is DLD1. The test is described as follows: Soft agar assay, anchorage-independent growth, DLD1. The test is classed as cell-based. The protocol: as §3, §2
Test [4] concerns HT-29 colon cancer cells. The test is described as follows: Soft agar assay, anchorage-independent growth, HT29. It counts as cell-based. The protocol:
as §1, §2

Test [5] has as its system c-Myc and cyclin D1. As to the kind of experiment: Western blot analysis of β-catenin/Tcf-4 targets. It counts as cell-based. As for the experimental part:
Proteins from cell lysates were prepared, separated by SDS-PAGE and transferred to Immobilon-P membranes (Millipore Corporation, Billerica, Mass.). Membranes were blocked with 5% nonfat dry milk for 1 h at room temperature and incubated with each of the primary and secondary antibodies. The signal was detected with a chemiluminescence reagent (Amersham).

Test [6] deals with T1, human β-catenin (126-781 amino acid residues) (Homo sapiens, UniProt P35222).
T1 construct: human β-catenin (126-781 amino acid residues)
T1 sequence (P35222 126-781): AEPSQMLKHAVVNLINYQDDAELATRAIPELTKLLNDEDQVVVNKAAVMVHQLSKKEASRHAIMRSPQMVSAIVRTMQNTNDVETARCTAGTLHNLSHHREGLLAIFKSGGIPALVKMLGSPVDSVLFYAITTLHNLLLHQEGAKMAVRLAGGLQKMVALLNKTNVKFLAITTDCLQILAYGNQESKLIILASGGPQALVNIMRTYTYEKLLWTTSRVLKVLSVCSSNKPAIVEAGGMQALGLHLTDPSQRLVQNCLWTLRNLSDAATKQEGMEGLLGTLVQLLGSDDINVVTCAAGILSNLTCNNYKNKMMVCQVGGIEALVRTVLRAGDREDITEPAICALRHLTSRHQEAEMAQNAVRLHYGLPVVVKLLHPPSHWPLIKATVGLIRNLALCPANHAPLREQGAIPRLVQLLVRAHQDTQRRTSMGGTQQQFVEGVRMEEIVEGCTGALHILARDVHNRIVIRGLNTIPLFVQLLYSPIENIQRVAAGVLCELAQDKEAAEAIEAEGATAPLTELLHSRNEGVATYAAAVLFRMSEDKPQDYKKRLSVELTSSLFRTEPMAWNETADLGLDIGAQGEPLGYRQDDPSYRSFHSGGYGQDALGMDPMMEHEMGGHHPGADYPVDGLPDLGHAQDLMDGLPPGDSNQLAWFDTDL
As to the kind of experiment: In vitro binding assay with purified β-catenin and compound-conjugated sepharose 4B bead. As for the experimental part:
FIGS. 7A-C. […] 2% of input from each experiments were used to show equal amount of incubated protein (purified or total cell lysates).
Based on the structure of the active compound HI-B9, additional analogs HI-B12, 13, 16, 17 and 20 (FIG. 5) were de novo designed and synthesized. […] 2% of input from each experiments were used to show equal amount of incubated protein (purified or total cell lysates).

In test [7] the test system is β-catenin. The test is described as follows: Ex vivo pull-down with compound-conjugated Sepharose 4B beads and colon cancer cell lysate: β-catenin. The test is classed as binding. The settings on record: colon cancer cell lysates; compound-conjugated Sepharose 4B beads. As for the experimental part: Protein extracts (500 μg) of colon cancer cells were mixed with Sepharose-4B beads (as a negative control) or chemical-conjugated Sepharose 4B beads (100 μl) in reaction buffer. After being washed five times with buffer, the proteins were visualized by Western blot analysis.

Test [8] relates to colon cancer cells. As to the kind of experiment: Proliferation and anchorage-independent growth of colon cancer cells (statements over several lines). The test is classed as cell-based. The conditions noted are these: every cell line tested: HCT116, HT29, DLD1 and SW480. The protocol: as §2
Test [9] relates to SW480. The test is described as follows: Soft agar assay, anchorage-independent growth, SW480. It counts as cell-based. As for the experimental part: as §3, §2

On to `O=C(CC1(O)C(=O)Nc2ccc(F)cc21)c1ccc(O)c(C23CC4CC(CC(C4)C2)C3)c1` (centres unmarked) [HI-B16], for which the “anchorage-independent growth (colony formation in soft agar)” value in test [1], in [3], in test [4] and in test [9] was “inhibit anchorage-independent growth” throughout. For the same molecule, the “inhibitory effect in β-catenin/Tcf-4 luciferase assay compared with HI-B9” value in [2] is “exerted inhibitory effects better than HI-B9”. In addition, in test [2] (concentration not given), the “inhibition of luciferase activity” value is roughly 90%. The “protein expression of c-Myc and cyclin D1” value in test [5] was “inhibited cyclin D1 and c-myc expression”. Besides, the “β-catenin and Tcf-4 expression level” value in test [5] is on record as “not affected”. Besides, the “binding of purified β-catenin to compound-conjugated bead (in vitro)” value in test [6] is recorded as “bound”. Moreover, in [7], the “binding to β-catenin (ex vivo pull-down)” value is “resulted in HI-B16/β-catenin binding”. Moreover, the “inhibition of anchorage-independent growth compared with HI-B9 treatment” value in test [8] is on record as “more effective than HI-B9”.
